Assays:
[1] = tested on: human-derived prostate cancer (DU-145); assay: Nude mouse subcutaneous transplant model of human-derived prostate cancer (DU-145); assay type: in vivo, nude mice
Method: It was attempted to evaluate the anticancer efficacy of the compound CG165 of the present disclosure by oral administration using nude mouse subcutaneous transplant models of human-derived prostate cancer (DU-145).
Specifically. Athymic-NCr NCr-nu specific pathogen-free (SPF) 5-week-old nude mice supplied by KOATECH (Pyeongtaek-si, Gyeonggi-do) were used as animals. The cancer cell concentration was adjusted to 3×10^7 cells/mL, and 0.3 mL of cell culture per mouse was injected subcutaneously into the axillary area between the right shoulder and chest wall. Subsequently, CG165 was prepared at the corresponding concentrations by adding DMAC 10%+Tween80 10%+20% HPBCD 80% step by step, and was administered orally at 0.2 mL per 20 g of mouse, which was repeated a total of 23 times for 30 days. At 30 days after starting drug administration, the DU-145 tumor was excised and its weight was measured.
Next, it was attempted to evaluate the anticancer efficacy of the compound CG126 of the present disclosure by intraperitoneal administration using nude mouse subcutaneous transplant models of human-derived prostate cancer (DU-145) in the same manner as above.

STAT3 activity (p-STAT3) [2] = biological target: T1, STAT3 activity (p-STAT3) (Homo sapiens, UniProt P40763); assay: STAT3 phosphorylation inhibitory effect in cancer cell line by Western blot (Table 2); assay type: cell-based; design: endogenous in cells; host or cells: unnamed 'rectal cancer cell' line; details: rectal cancer cell line, read-out: Concentration at which STAT3 activity (p-STAT3) is inhibited by 50% (μM; IC50)
T1 sequence (P40763 whole entry): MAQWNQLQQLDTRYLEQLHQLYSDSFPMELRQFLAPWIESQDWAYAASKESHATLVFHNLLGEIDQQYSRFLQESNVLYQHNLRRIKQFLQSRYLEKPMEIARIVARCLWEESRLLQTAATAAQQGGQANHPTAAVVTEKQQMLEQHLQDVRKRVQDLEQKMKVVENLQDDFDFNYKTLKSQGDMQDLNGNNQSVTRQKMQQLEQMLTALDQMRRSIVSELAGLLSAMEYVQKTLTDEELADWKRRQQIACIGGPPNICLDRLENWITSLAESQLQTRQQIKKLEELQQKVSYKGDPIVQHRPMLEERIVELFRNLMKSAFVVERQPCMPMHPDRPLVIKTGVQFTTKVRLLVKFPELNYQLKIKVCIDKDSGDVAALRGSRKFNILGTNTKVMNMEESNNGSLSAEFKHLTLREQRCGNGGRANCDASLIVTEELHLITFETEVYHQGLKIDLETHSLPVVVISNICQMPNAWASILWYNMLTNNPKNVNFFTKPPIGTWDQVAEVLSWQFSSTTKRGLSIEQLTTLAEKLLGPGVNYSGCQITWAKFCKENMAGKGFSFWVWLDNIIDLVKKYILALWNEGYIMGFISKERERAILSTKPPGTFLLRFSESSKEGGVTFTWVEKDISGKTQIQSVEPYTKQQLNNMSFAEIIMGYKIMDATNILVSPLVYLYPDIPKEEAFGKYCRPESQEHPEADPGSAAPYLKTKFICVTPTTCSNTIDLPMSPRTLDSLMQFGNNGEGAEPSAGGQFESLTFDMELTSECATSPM
Method: (§1) Prostate cancer cell line DU-145, breast cancer cell MDA-MB 468, lung cancer cell HCC827, natural killer cells (NKL), or bone marrow-derived macrophages (BMDM) (4×10^5 cells), which are immune cells, were plated in a 6-well plate. After 24 hours, the cells were each treated with 0.1% DMSO, HCA, EA, and the compounds prepared in Synthesis Examples 1 to 8 according to concentration and time, washed with PBS, and recovered using RIPA buffer. […] of protein quantified using the Bio-Rad protein assay kit (Bio-Rad, Hercules, California, USA) was subjected to 8% SDS-PAGE electrophoresis and transferred to a PVDF membrane (EMD Millipore, Billerica, MA, USA). After blocking the membrane with TBST containing 5% skim milk, the experiment was performed using primary and secondary antibodies. The primary antibodies used were p-STAT3 (Y705) (Cell Signaling), STAT3 (Cell Signaling), Cyclin D1 (Santa Cruz), Cyclin A (Santa Cruz), Mcl-1 (Santa Cruz), Survivin (Cell Signaling), Bcl-XL (Santa Cruz), and PARP (Cell Signaling) GAPDH (Santa Cruz), and the secondary antibodies used were HRP-conjugated goat anti-rabbit and anti-mouse IgG (Jackson ImmunoResearch Laboratories, West Grove, PA, USA). The antibodies used were each washed three times with TBST, and bands were detected using Luminata Forte Western HRP substrate (EMD Millipore) by LAS 4000 mini (GE Healthcare Life Sciences). Subsequently, correction using GAPDH was performed using the MultiGauge program (Fuji Photo Film, Tokyo, Japan).
The STAT3 phosphorylation inhibitory effect of the cinnamamide derivatives of Chemical Formula 1 prepared in Synthesis Examples 1 to 8 in cancer cell lines was confirmed by Western blot.
Specifically, the STAT3 phosphorylation inhibitory effect in rectal cancer cell was confirmed line as an example of representative carcinoma.

[3] = biological target: T2, STAT3 phosphorylation (p-STAT3) (Mus musculus, UniProt P42227); assay: STAT3 phosphorylation inhibition in IL-10-treated bone marrow-derived macrophages (BMDM) by Western blot; assay type: cell-based, C57BL/6 mice; details: for inhibition of phosphorylation of STAT3, dependence on concentration: 1 hour pre-treatment, then IL-10 for 15 minutes
T2 construct: the bone marrow-derived macrophages isolated from mouse bone marrow; endogenous in cells; host or cells: primary bone marrow-derived macrophages from C57BL/6 mice
T2 sequence (P42227 whole entry): as the sequence (P40763 whole entry) above, with E760D counted along it
Method: as §1, with “Japan). […]” for “Japan).”
Subsequently, in order to confirm the function of CG155 and CG165 in inhibiting STAT3 activation in the bone marrow-derived macrophages isolated from mouse bone marrow, the bone marrow-derived macrophages were each pre-treated with DMSO, CG155 (5 μM, 10 μM), and CG165 (2 μM, 5 μM) for 1 hour. After removing the culture medium, the bone marrow-derived macrophages were treated with interleukin-10 (IL-10), a type of cytokine that can activate STAT3, for 15 minutes, and the function of CG155 and CG165 on inhibiting STAT3 activation was measured by Western blot using p-STAT3 antibody.

[4] = biological target: T3, STAT3 phosphorylation (p-STAT3) (Homo sapiens, UniProt P40763); assay: STAT3 phosphorylation inhibition in natural killer cells (NKL) by Western blot; assay type: cell-based; details: 2, 5, 10 μM
T3 construct: endogenous in cells; host or cells: NKL natural killer cells
T3 sequence (P40763 whole entry): as the sequence (P40763 whole entry) above
Method: as §1, with “The primary antibodies used were p-STAT3 (Y705) (Cell Signaling), STAT3 (Cell Signaling), Cyclin D1 (Santa Cruz), Cyclin A (Santa Cruz), Mcl-1 (Santa Cruz), Survivin (Cell Signaling), Bcl-XL (Santa Cruz), and PARP (Cell Signaling) GAPDH (Santa Cruz), and the secondary antibodies used were HRP-conjugated goat anti-rabbit and anti-mouse IgG (Jackson ImmunoResearch Laboratories, West Grove, PA, USA).” left out, “Subsequently, correction using GAPDH was performed using the MultiGauge program (Fuji Photo Film, Tokyo, Japan).” left out
Specifically, NKL (4×10^5 cells) were plated in 6-well plate and each treated with 2 μM, 5 μM, and 10 μM of CG155 or CG165, and then the degree of STAT3 phosphorylation was measured by Western blot using p-STAT3 antibody.

[5] = tested on: prostate cancer cell line DU-145; assay: Cell proliferation assay (WST-1) in prostate cancer cell line DU-145; assay type: cell-based, human; details: 24 or 48 hours
Method: In Example 1, it was confirmed that STAT3 activity (p-STAT3) was inhibited in cancer cells when treated with the cinnamamide derivatives of Chemical Formula 1 prepared in Synthesis Examples 1 to 8. In order to confirm the effect of inhibiting STAT3 activity on inhibition of cancer cell growth, cell proliferation assay was performed using the prostate cancer cell line, a representative carcinoma.
Specifically, the prostate cancer cell line DU-145 (0.8×10^4 cells) was plated in a 96-well plate. After 24 hours, DMSO (control) and CG-165 were treated for 24 or 48 hours according to concentration, and then treated with 10 ul of WST-1 reagent (Dojindo Laboratories, Kumamoto, Japan). After treatment for about 1 hour, cell viability was calculated using the absorbance measured at 450 nm with a microplate reader (Multiskan GO system, Thermo Fisher Scientific, Rockford, IL, USA).

[6] = tested on: breast cancer cell line MDA-MB-468; assay: Cell proliferation assay (WST-1) in breast cancer cell line MDA-MB-468; assay type: cell-based; details: 24 or 48 hours
Method: In Example 1, it was confirmed that STAT3 activity (p-STAT3) was inhibited by more than 50% in cancer cells when treated with the compound CG165 of the present disclosure. In order to confirm the effect of inhibiting STAT3 activity on inhibition of cancer cell growth, cell proliferation assay was performed using the breast cell line, a representative carcinoma.
Specifically, the breast cancer cell line MDA-MB-468 was treated with CG-165 according to concentrations for 24 or 48 hours, and then the degree of cell viability was measured using the WST-1 assay (Dojindo Laboratories, Kumamoto, Japan).

STAT3 activity (p-STAT3) [7] = biological target: T1, STAT3 activity (p-STAT3); assay: STAT3 phosphorylation inhibition in prostate cancer cell line DU-145 by Western blot; assay type: cell-based; design: endogenous in cells; host or cells: DU-145, MDA-MB-468, HCC827
Method: as §1
Next, the STAT3 phosphorylation inhibitory effect of the compound CG165 of the present disclosure in cancer cell lines was confirmed by Western blot.

[8] = tested on: STAT3 target proteins (cyclin A, Mcl-1, survivin), caspase 3, PARP; assay: Expression of STAT3 target proteins and apoptotic effect in cancer cell lines by Western blot; assay type: cell-based
Method: as §1
In Example 1, it was confirmed that STAT3 activity (p-STAT3) was inhibited in cancer cells when treated with the compound CG165 of the present disclosure. The effect of inhibiting the expression of STAT3 target proteins and the apoptotic effect due to the inhibition of STAT3 activity were confirmed using Western blot.

STAT3 activity (p-STAT3) [9] = biological target: T1, STAT3 activity (p-STAT3); assay: STAT3 phosphorylation inhibition in lung cancer cell line HCC827 by Western blot; assay type: cell-based; design: endogenous in cells
Method: as §1, with “Subsequently, correction using GAPDH was performed using the MultiGauge program (Fuji Photo Film, Tokyo, Japan).” left out

[10] = Single oral dose toxicity in mice; assay type: in vivo; details: male mice; 100 mg/kg, 200 mg/kg, and 300 mg/kg
Method: In order to obtain information on the acute toxicity of the compound CG165 of the present disclosure whose anticancer effect has been verified in animal models, the test substance was administered orally once at 100 mg/kg, 200 mg/kg, and 300 mg/kg to male mice to determine mortality, general symptoms, weight change, and post-mortem over 7 days.
Specifically, 20 Athymic-NCr NCr-nu specific pathogen-free (SPF) 5-week-old nude mice supplied by KOATECH (Pyeongtaek-si, Gyeonggi-do) were used as animals. Subsequently, CG165 was prepared as administration solution at different concentrations by adding DMAC 10%+Tween80 10%+20% HPBCD 80% step by step, and was administered orally.
General symptoms and dead animals were observed every hour from 1 to 6 hours after the final administration on the day of administration, and once daily from the day after administration until the 7th day for observation of changes in general symptoms, toxic symptoms, and the presence of dead animals.
In order to observe changes in body weight, the body weight of all animals used in the test was measured before administration and on days 0, 1, 2, 4, and 7 after administration.
On the 7th day after administration, all animals were anesthetized using CO2 gas, laparotomized, and killed by exsanguination by cutting the abdominal artery and vein, and all internal organs were visually observed.

STAT3 activity (p-STAT3) [11] = biological target: T1, STAT3 activity (p-STAT3); assay: STAT3 phosphorylation inhibition in breast cancer cell line MDA-MB-468 by Western blot; assay type: cell-based; design: endogenous in cells
Method: as §1, with “Subsequently, correction using GAPDH was performed using the MultiGauge program (Fuji Photo Film, Tokyo, Japan).” left out

[12] = tested on: MCF10A, human breast epithelial cells; assay: Cell viability (WST-1) in normal cells MCF10A; assay type: cell-based; details: 10 μM, 48 hours
[13] = tested on: human foreskin fibroblasts HFF; assay: Cell viability (WST-1) in normal cells HFF; assay type: cell-based; details: 10 μM, 48 hours

Structure (SMILES): C=C(C)C(=O)NC(=O)/C=C/c1ccccc1OC [CG126]
- decrease in tumor weight compared to the vehicle ([1]; 30 mg/kg intraperitoneal, day 25, p<0.06): 54.2%
- IC50 (STAT3 activity (p-STAT3) [2]): 3.7 µM

Structure (SMILES): C=C(C)C(=O)NC(=O)/C=C/c1ccccc1C [CG127]
- IC50 (STAT3 activity (p-STAT3) [2]): 8.1 µM

Structure (SMILES): C=C(C)C(=O)NC(=O)/C=C/c1ccccc1O [CG133]
- IC50 (STAT3 activity (p-STAT3) [2]): 6.2 µM

Structure (SMILES): C=C(C)C(=O)NC(=O)/C=C/c1ccccc1OCc1ccncc1 [CG155]
- inhibition of phosphorylation of STAT3, dependence on concentration [3]: concentration-dependent manner
- inhibition of phosphorylation of STAT3, dependence on concentration [4]: concentration-dependent manner
- IC50 (STAT3 activity (p-STAT3) [2]): 5 µM

Structure (SMILES): C#CCOc1ccccc1/C=C/C(=O)NC(=O)C(=C)C [CG164]
- IC50 (STAT3 activity (p-STAT3) [2]): 3.5 µM

Structure (SMILES): C#CCOc1ccccc1/C=C/C(=O)N(C)C(=O)C(=C)C [CG165]
- inhibition of growth of cancer cells (cell viability, WST-1) [5]: inhibited the growth of cancer cells in a concentration-dependent manner
- inhibition of growth of breast cancer cells (cell viability, WST-1) [6]: inhibited the growth of breast cancer cells in a concentration-dependent manner
- inhibition of STAT3 activity (p-STAT3), dependence on concentration (STAT3 activity (p-STAT3) [7]): concentration-dependent manner
- inhibition of STAT3 activity (p-STAT3), dependence on time (STAT3 activity (p-STAT3) [7]): time-dependent manner
- inhibition at 2 µM (STAT3 activity (p-STAT3) [7]; 2 μM): > 50%
- caspase 3 activation [8]: activated
- decomposition of PARP protein (cell death biomarker) [8]: promoted
- expression of cyclin A, Mcl-1, and survivin (target proteins of STAT3) [8]: significantly inhibited
- inhibition of STAT3 activity (p-STAT3), dependence on concentration (STAT3 activity (p-STAT3) [9]): concentration-dependent manner
- inhibition at 5 µM (STAT3 activity (p-STAT3) [9]; 5 μM): > 50%
- toxicological changes upon single oral administration [10]: did not cause toxicological changes
- change in body weight compared to the vehicle ([1]; 30 mg/kg oral): no decrease in body weight was observed
- decrease in tumor weight compared to the vehicle ([1]; 30 mg/kg oral, day 30, p<0.05): 43.3%
- change in body weight compared to the vehicle ([1]; 60 mg/kg oral): no decrease in body weight was observed
- decrease in tumor weight compared to the vehicle ([1]; 60 mg/kg oral, day 30, p<0.05): 64.3%
- tumor growth inhibition (tumor size) compared to the vehicle ([1]; 60 mg/kg oral, day 30, p<0.05): 63.3%
- tumor growth inhibition (tumor size) compared to the vehicle ([1]; P.O, 30 mg/kg, day 30, p<0.05): 45.6%
- inhibition at 5 µM ([3]; 5 μM, IL-10 stimulated, read-out: inhibition of STAT3 activation): > 90%
- inhibition of phosphorylation of STAT3, dependence on concentration [3]: concentration-dependent manner
- inhibition of STAT3 activity (p-STAT3), dependence on concentration (STAT3 activity (p-STAT3) [11]): concentration-dependent manner
- inhibition at 5 µM (STAT3 activity (p-STAT3) [11]; 5 μM): > 50%
- inhibition of phosphorylation of STAT3, dependence on concentration [4]: concentration-dependent manner
- IC50 (STAT3 activity (p-STAT3) [2]): 1.8 µM
- effect on the growth of normal cells (cell viability, WST-1) [12]: no significant effect
- effect on the growth of normal cells (cell viability, WST-1) [13]: no significant effect

Structure (SMILES): C=C(C)C(=O)NC(=O)/C=C/c1ccccc1Cl [CG168]
- IC50 (STAT3 activity (p-STAT3) [2]): 2 µM

Structure (SMILES): C=C(C)C(=O)NC(=O)/C=C/c1ccccc1OCc1ccccc1 [CG187]
- IC50 (STAT3 activity (p-STAT3) [2]): 3.5 µM

Reference: US20250082620A1, “NOVEL CINNAMAMIDE DERIVATIVES AND USE THEREOF” (KOREA RESEARCH INSTITUTE OF BIOSCIENCE AND BIOTECHNOLOGY, priority 2022, published 2025)
